Source: patent US20250120957A1, “TREATMENT OF NEUROPSYCHIATRIC DISORDERS WITH TILIVAPRAM” (Alto Neuroscience, Inc., priority 2023, published 2025)

What was measured:
Assay type in all cases: in vivo, human
[1] = system: healthy patients aged 40 to 65 years old; test: Phase 1 three-way crossover study: resting 19 channel EEG and cognitive task ERPs; conditions: vs placebo
Description: (§1) A phase 1 three-way, crossover study was performed as shown in FIG. 1 on healthy patients aged 40 to 65 years old to determine dose and pharmacodynamic outcomes. Patients in the fasted state were orally administered 0.5 or 1.5 mg tilivapram or placebo in the form of an immediate release suspension. Outcomes were measured with a computerized neurocognitive test battery, resting 19 channel EEG, and cognitive task ERPs (event-related potentials). 44 patients were dosed (and used for AE analyses), of which 40 received all three doses (and used for analysis of cognitive, EEG and ERP outcomes).
Theta (4-8 Hz) is an EEG rhythm involving connections between the hippocampus and prefrontal cortex. Frontal midline resting theta power is elevated across a range of cognitive disorders, such as schizophrenia, ADHD, Parkinson's disease, Alzheimer's disease and mild cognitive impairment (MCI) (see Newson et al., Front Hum Neurosci., 2019, 12:521 (PMID 30687041)). Increased theta power correlates with poorer cognitive task performance. […] Tilivapram has a wide therapeutic window as there were significant decreases in theta power at both the 0.5 mg and 1.5 mg doses.
Stimulus-induced theta response, such as measured by inter-trial coherence, phase locking factor or event-related spectral perturbation, reflect the brain response during stimulus processing, is reduced in patients with schizophrenia, and the degree of reduction is correlated with the degree of cognitive impairment in these patients (Lee at al., Mol Psychiatry, 2017, 22 (11): 1585-1593, PMID 28167837; Martínez et al., Front Hum Neurosci., 2015, 9:371, PMID 26190988; Xiong et al.,Front Hum Neurosci., 2019, 13:37, PMID 30894804; Hua et al., Biol Psychiatry Cogn Neurosci Neuroimaging., 2023, 8 (12): 1186-1196, PMID: 36931469; Hochberger et al., Int. J. Psychophysiology, 2019, 145:23-29, PMID: 30586570; Wolff et al., Cerebral Cortex, 2022, 32:3441-3456: PMID: 34875019).
Evoked sensory gamma-based responses represent both basic sensory processing as well as higher cognitive functions, such as attention and memory. The onset of a stimulus triggers precisely timed local processing, evident as an increase in gamma-band intertrial phase locking. Gamma-band phase locking at ˜50 ms after stimulus onset is reduced in schizophrenia and other psychotic spectrum disorders such as bipolar disorder (see Roach et al., Schizophr Bull., 34 (5): 907-26, 2008 (PMID 18684772); Javitt et al., Neuropsychopharmacology, 45 (9): 1411-1422, 2020 (PMID 32375159)). […]

[2] = system: healthy patients aged 40 to 65 years old; test: Phase 1 three-way crossover study: computerized neurocognitive test battery; conditions: for global cognition, effect size d relative to placebo / memory, effect size d relative to placebo: 0.5 mg oral
Description: as §1
Tilivapram has a wide therapeutic window in the finger tapping task as there were significant decreases in latency at both the 0.5 mg and 1.5 mg doses.
The effect of tilivapram versus placebo on cognition was examined between subgroups of the study sample differing in their global cognitive composite score at baseline. […] However, examining only participants with baseline global cognition below healthy norms (z<−0.5), the effect of 0.5 mg tilivapram relative to placebo increased to d=0.861, p=0.034. […] Examining participants with global cognition of z<−0.5, the effect on memory becomes larger and statistically significant (d=0.797, p=0.048).

[3] = system: healthy patients aged 40 to 65 years old; test: Phase 1 three-way crossover study: adverse events
Description: as §1
The adverse events were primarily nausea, as expected given the well-known dose-limiting effects of PDE4 inhibitors on nausea. Approximately 28% of people experienced nausea at the 1.5 mg dose, while only 2% did so at the 0.5 mg dose. […] Only one patient discontinued treatment due to an adverse event at the higher dose (1.5 mg) of tilivapram.

participants = test: Phase I open-label 2-way cross-over study of oral solution vs transdermal delivery system: related adverse events
Description: A phase I, open-label, fixed period, 2-way cross-over study was performed to establish the pharmacokinetics and safety of a transdermal delivery system containing tilivapram. In Period 1 Day 1 (P1D1), participants were dosed with 1.0 mg of tilivapram in a liquid oral solution in a fasted state. After a 7-day washout period, participants were dosed with the first set of 4 patches applied by study staff on Period 2 Day 1 (P2D1), which were then removed after 24 hours and 4 new patches applied for an additional 24 hours on Period 2 Day 2 (P2D2) for a total of 48 hours. All but one of the 15 subjects completed the study. One subject withdrew after receiving the oral solution.

[4] = 0.5 and 1.5 mg oral, vs placebo
[5] = oral N=15, transdermal N=14, overall N=15

## COc1cnc(C(=O)Nc2c(Cl)c[n+]([O-])cc2Cl)cc1OCC1CC1 [tilivapram, 4-(cyclopropylmethoxy)-N-(3,5-dichloro-1-oxidopyridin-4-yl)-5-methoxypyridine-2-carboxamide]
[1]; 0.5 mg and 1.5 mg oral, auditory stimulus
  theta intertrial coherence at the Cz electrode: increased theta intertrial coherence
[1]; 0.5 and 1.5 mg oral immediate release suspension, fasted
  theta relative power at the Fz electrode (resting EEG): decreased theta relative power
[1]; 0.5 and 1.5 mg oral, Pz electrode
  gamma-band phase locking approximately 50 ms after onset of a tone auditory stimulus: increased gamma-band phase locking
[1]; 0.5 and 1.5 mg oral, oddball task
  mismatch negativity (MMN) at the Fz electrode: increased MMN
[2]; full sample, p=0.223
  global cognition, effect size d relative to placebo: 0.274
[2]; full sample, p=0.359
  memory, effect size d relative to placebo: 0.207
[2]; participants with baseline global cognition z<−0.5, p=0.034
  global cognition, effect size d relative to placebo: 0.861
[2]; participants with global cognition z<−0.5, p=0.048
  memory, effect size d relative to placebo: 0.797
[2]; [4]
  processing speed (composite z-score of simple reaction time, choice reaction time and Eriksen flanker tasks): improved processing speed
  psychomotor speed (latency in a finger tapping task): improved psychomotor speed
[3]; 0.5 mg oral dose
  people experiencing nausea: 2%
[3]; 0.5 mg to 1.5 mg oral
  dizziness and lightheadedness: substantially increased in a dose-related manner
[3]; 1.5 mg oral dose
  patients who discontinued treatment due to an adverse event: one
  people experiencing nausea: Approximately 28%
[3]; from the 0.5 mg dose to the 1.5 mg dose, oral
  adverse events: increased substantially
participants; oral 1.0 mg fasted N=15, 4 patches x 2 days N=14, overall N=15
  Number of participants with at least 1 TEAE: 11 (73.3) n (%)
participants; [5]
  Abdominal pain: 0 n (%)
  Administration site erythema: 0 n (%)
  Administration site pain: 0 n (%)
  Administration site pruritus: 2 (13.3) n (%)
  Arthralgia: 0 n (%)
  Asthenia: 1 (6.7) n (%)
  Dermatitis acneiform: 0 n (%)
  Diarrhea: 1 (6.7) n (%)
  Dizziness: 6 (40.0) n (%)
  Dyspepsia: 1 (6.7) n (%)
  Ear and labyrinth disorders: 1 (6.7) n (%)
  Fatigue: 0 n (%)
  Gastrointestinal disorders: 3 (20.0) n (%)
  General disorders and administration site conditions: 2 (13.3) n (%)
  Headache: 6 (40.0) n (%)
  Insomnia: 0 n (%)
  Irritability: 0 n (%)
  Musculoskeletal and connective tissue disorders: 0 n (%)
  Nausea: 3 (20.0) n (%)
  Nervous system disorders: 8 (53.3) n (%)
  Neuralgia: 0 n (%)
  Number of TEAEs: 28
  Psychiatric disorders: 0 n (%)
  Skin and subcutaneous tissue disorders: 0 n (%)
  Vertigo: 1 (6.7) n (%)
